Here are results for one compound from paper PMC7689490, “Designed CXCR4 mimic acts as a soluble chemokine receptor that blocks atherogenic inflammation by agonist-specific targeting” (Nature Communications, 2020).

Several values for one entry are separate records, joined by “and”; a condition that tells them apart may be missing. Identical values can stand only once. Entries after “also recorded” stand apart in the source; their conditions may differ.

The test system of one data set is MonoMac-6 / HAoEC. The experiment in a line: MIF-induced MonoMac-6 adhesion to HAoECs under flow. Type of data set: cell-based, human. As to the method: HAoECs were seeded at a density of 60,000 cells per channel in collagen-coated Ibidi µ-Slides I 0.8 and incubated for 20–24 h until monolayers were confluent. […] Prior to the flow assay, MgSO4 and CaCl2 were added to MonoMac6 suspensions at a final concentration of 1 mM. Flow channels containing HAoEC monolayers were then perfused with MonoMac6 cells at a shear rate of 1.5 dyn cm^−2 for 10 min at 37 °C using the Ibidi Pump System/Perfusion Set. For quantification of adherent monocytes, images from four positions per channel were acquired using a Leica DMi8 inverted microscope (20 x objective) and quantified with ImageJ.

In data set [1] the test system is human CXCR4. Put plainly: CXCL12-triggered CXCR4-specific signaling in yeast (lacZ read-out). Type of data set: cell-based. How it is done: (§1) Briefly, yeast transformants stably expressing human CXCR4 were grown overnight at 30 °C in yeast nitrogen base selective medium (Formedium, UK). Cells were diluted to an OD600 of 0.2 and grown to an OD600 of 0.3–0.6. […] OD600 was measured and activation of CXCR4 signaling quantified by β-galactosidase activity using a commercial BetaGlo Kit (Promega, Mannheim, Germany).

Data set [2] has as its system human CXCR4. The experiment in a line: MIF-triggered CXCR4-specific signaling in yeast (lacZ read-out). Particulars: co-incubation with MIF. Type of data set: cell-based. How it is done:
as §1

Data set [3] has as its system circulating inflammatory cytokines. The experiment in a line: Plasma cytokine array in treated Apoe−/− mice. It counts as in vivo, mouse. Particulars: reductions for IL-1α, IL-16, TNF-α, CXCL13/BLC; 6 vs 6 mice.
Experimental: Plasma samples were diluted (1:10) in array buffer; incubated with antibody detection cocktail for 1 h at RT, exposed to the blocked membranes (overnight, 4 °C), membranes washed and incubated with streptavidin-HRP conjugate working solution (30 min, RT). Membranes were developed with Chemi-Reagent Mix and analyzed by Odyssey® Fc imager. The average signal (mean signal intensity) of duplicate spots was quantified by ImageJ.
The test system of data set [4] is primary human monocyte-derived macrophages. The experiment in a line: MIF-mediated DiI-LDL uptake / foam cell formation. It counts as cell-based. Particulars: 80 nM MIF. As to the method: After washing with imaging solution (MEM without phenol red containing 30 mM HEPES, 0.5 g/L NaHCO3, pH 7.4, and 0.2% BSA), cells were exposed to 50 µg mL^−1 1,1′-dioctadecyl-3,3,3′3′-tetramethylindocarbocyanine-labeled oxidized LDL (DiI-oxLDL) or DiI-labeled native LDL (DiI-LDL) for 30 min at 4 °C, followed by incubation at 37 °C for 20 min. Cells were washed with ice-cold imaging solution (pH 3.5), fixed, and counter-stained with Hoechst 33258.

In data set [5] the test system is carotid arteries of Apoe−/− mice. The experiment in a line: Leukocyte adhesion in ex vivo mounted atherosclerotic carotid arteries under flow (MPM). The arrangement: species or system mouse. As to the method: Monocyte adhesion experiments in atherosclerotic carotid arteries under physiological flow conditions ex vivo have been established[14],[75] and were performed by a slight modification of this procedure. Briefly, seven-week-old Apoe^−/− mice were fed a Western-type HFD (0.2% cholesterol) for 12 weeks. […] On day 3, arteries were prepared and mounted into an arteriograph chamber. […] Mouse leukocytes isolated from the bone marrow of msR4M-L1- or vehicle-treated atherogenic Apoe^−/− mice were stained with fluorescent Green CMFDA or Red CMPTX (Thermo Fisher Scientific). […] The red- and green-stained cell pools were mixed at a 1:1 ratio and 3 × 10^6 cells in 6 mL perfused into the artery of msR4M-L1- or vehicle-treated mice, respectively. Arteries were scanned by MPM using a multispectral TCS SP8 DIVE instrument with filter-free 4TUNE NDD detection module (Leica) and the number of adherent and transmigrated leukocytes determined by scanning multiphoton excitation. Vessel structure (and plaques) were visualized by second harmonic generation (SHG). Image acquisition, visualization, and processing was performed using the LAS X SP8 software package with LAS X 3D visualization and analysis (Leica) and LAS X HyVolution 2 packages from Leica/SVI Huygens, (Laapersveld, NL).

The next data set deals with Apoe−/− mice on HFD. Put plainly: In vivo model of atherosclerosis (lesions, lesional macrophages, tolerability). How it is done:
Seven-eight-week-old female Apoe^−/− mice were randomly divided into two groups of 11–12 mice each and both groups put on a Western-type HFD (0.21% cholesterol) for 4.5 weeks. Mice develop early-to-intermediate atherosclerotic lesions in this model. […] At the end of the experiment, mice were sacrificed, blood collected by cardiac puncture and saved for blood cell and lipid measurements and mice transcardially perfused with saline. Hearts, proximal aortas and carotid arteries were prepared and fixed for plaque morphometry and lesion analysis.
Quantification of plaques and vessel morphometry (ORO and H&E staining). Cut heart tissues containing aortic root were embedded in Tissue Tek optimum cutting temperature (OCT) substance (Sakura Finetek, Osaka, Japan) and frozen at −80 °C. Eight-µm sections were prepared for ORO staining and plaque immune cell analysis. The accumulation of macrophages in aortic root lesions was determined by an anti-MAC-2 antibody (1:100 dilution) followed by Cy5-conjugated secondary antibody. Nuclei were visualized with DAPI. The aortic arch was cut, fixed in 4% paraformaldehyde (PFA) and embedded in paraffin. Four-µm sections containing the three branches (brachiocephalic, left common carotid, and left subclavian artery) were prepared and stained with hematoxylin/eosin (H&E) for vessel morphometry. Images were captured with a Leica DMi8 microscope and quantified using ImageJ.

Data set [6] concerns primary mouse spleen B lymphocytes. Put plainly: MIF-triggered Transwell chemotaxis of primary splenic B cells.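 On all read-outs here: migration tracked over 4 h at 37 °C, read out as transmigrated cells counted by flow cytometry with absolute counting beads.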 Particulars: for MIF-elicited chemotaxis: Suppl. Fig. 15b, individual replicates, n = 4. Type of data set: cell-based.
Experimental: Briefly, splenic B cells were isolated by negative depletion using a Pan B Cell Isolation Kit (Miltenyi Biotec, Bergisch Gladbach, Germany). […] Chemotaxis was followed for 4 h at 37 °C in a humidified atmosphere of 5% CO2. Migrated cells were counted by flow cytometry using CountBright™ Absolute Counting Beads (Molecular Probes-Invitrogen).
For data set [7] the following is noted: mouse, in vivo.
The next data set concerns pAMPK/AMPK in HCM. The experiment in a line: MIF/CD74-triggered AMPK signaling in human cardiomyocytes (HCM). It counts as cell-based. As to the method:
HCMs (2 × 10^5 per well) were plated in 12-well plates and maintained for 2 days with cultured medium containing 5% FCS. Before stimulation, medium was replaced by fresh myocyte basal medium containing 0.05% FCS and HCMs rested for 16 h. Surface CD74 expression on HCMs was verified by flow cytometry (FITC-conjugated anti-human CD74 (1:100 dilution), FITC-IgG2 (isotype control) (BD Pharmingen), 1 h/4 °C in the dark, BD FACSVerse™ flow cytometer, FlowJo software). […] After treatment, cells were lysed and subjected to SDS-PAGE (10%)/Western blotting using NuPAGE® lithium dodecyl sulfate (LDS)/dithiothreitol (DTT) lysis buffer-containing PhosSTOP^TM reagent (Roche Applied Science). […] Anti-rabbit horse-radish peroxidase (HRP)-conjugated antibody (1:10000, GE Healthcare, Freiburg, Germany) was used for development and signals quantitated by chemiluminescence using an Odyssey® Fc imager. Unprocessed scans of the Western blots are supplied in the Source Data file.

For the compound `CC[C@H](C)[C@H](NC(=O)[C@H](Cc1ccc(O)cc1)NC(=O)[C@H](CCCNC(=N)N)NC(=O)[C@H](CC(=O)O)NC(=O)CCCCCCCCCCCNC(=O)CCCCCNC(=O)[C@H](CCCCN)NC(=O)[C@H](CS)NC(=O)[C@H](CC(C)C)NC(=O)[C@H](Cc1ccccc1)NC(=O)[C@H](CC(N)=O)NC(=O)CNC(=O)[C@H](Cc1ccccc1)NC(=O)[C@H](Cc1ccc(O)cc1)NC(=O)[C@H](Cc1c[nH]c2ccccc12)NC(=O)[C@H](CC(N)=O)NC(=O)[C@H](C)NC(=O)[C@@H](NC(=O)[C@H](C)NC(=O)[C@@H](N)CC(=O)O)C(C)C)C(=O)N[C@@H](CS)C(=O)N[C@@H](CC(=O)O)C(=O)N[C@@H](CCCNC(=N)N)C(=O)N[C@@H](Cc1ccccc1)C(=O)N[C@@H](Cc1ccc(O)cc1)C(=O)N1CCC[C@H]1C(=O)N[C@@H](CC(N)=O)C(=O)N[C@@H](CC(=O)O)C(=O)N[C@@H](CC(C)C)C(=O)N[C@@H](Cc1c[nH]c2ccccc12)C(=O)N[C@H](C(N)=O)C(C)C` [msR4M-L1, CXCR4-ECL1[97–110]-6-Ahx-12-Ado-ECL2[182–196]], the “effect on MIF-induced monocyte adhesion under flow” value in the data set on MonoMac-6 / HAoEC (1.5 dyn/cm^2, 16 nM MIF, 320 nM msR4M-L1) is “inhibited monocyte adhesion”. Moreover, the “Fig. 5c, MIF-induced monocyte adhesion” value in the data set with MonoMac-6 / HAoEC (MIF + msR4M-L1, individual replicates, n = 4) was 206 and 207 and 188 and 291. The “Fig. 5b, MIF-induced monocyte adhesion” value with MonoMac-6 / HAoEC (TNF + MIF + msR4M-L1, individual replicates, n = 3) is 105.71 and 99.43 and 83.71. The “effect on CXCL12/CXCR4-elicited signaling” value with human CXCR4 [1] is reported as “remained unaffected”. Also, the “effect on MIF-triggered CXCR4 reporter signal” value in the data set on human CXCR4 [2] is on record as “blocked the β-galactosidase reporter signal in a concentration-dependent manner”. In [3], the “circulating inflammatory cytokine levels” value is listed as “marked reduction”. For the same compound, the “inhibition of MIF-mediated DiI-LDL uptake” value in [4] is reported as “dose-dependently inhibited; also recorded: slightly better than that of ISO-1, but lower than that of NIH/IIID.9”. Further, in data set [5] (msR4M-L1 100 µg once daily for 3 days before vessel harvest, 5–6 carotid arteries per group), the “number of luminally adhering leukocytes” value is “significantly reduced”. The “Fig. 5l, leukocyte adhesion in ex vivo mounted carotid arteries” value in data set [5] (msR4M-L1 group, individual values, n = 6) was 12 and 45 and 36 and 16 and 32. Also, in the data set on Apoe−/− mice on HFD (50 µg i.p. for 4.5 weeks), the “toxicity or side effects” value was “No toxicity or side effects were noted”. The “atherosclerotic lesion size in aortic arch” value with Apoe−/− mice on HFD (Apoe−/− mice, HFD 4.5 weeks, 50 µg (2.5 mg kg^−1) i.p. three times per week, HE, 7 vs 7 mice) was “significantly decreased”. For the same compound, the “Lesion area (x10to3 µm2)” value in the data set with Apoe−/− mice on HFD (Fig. 6g, msR4M-L1-treated animals, per animal, n = 11) was 184.774 x10to3 µm2 and 104.198 x10to3 µm2 and 151.257 x10to3 µm2 and 126.04 x10to3 µm2 and 45.213 x10to3 µm2 and 130.67 x10to3 µm2 and 89.727 x10to3 µm2 and 63.265 x10to3 µm2 and 177.705 x10to3 µm2 and 117.601 x10to3 µm2 and 70.989 x10to3 µm2. The “number of lesional macrophages, MAC-2 staining” value with Apoe−/− mice on HFD (as E123, 11 vs 12 mice) is “significantly decreased”. The “atherosclerotic lesion size in aortic root” value in the data set on Apoe−/− mice on HFD (as E123, ORO, 12 vs 12 mice) was “significantly decreased”. Further, the “inhibition of MIF-mediated B-cell chemotaxis” value in data set [6] (16 nM MIF, peptide at 5-fold molar excess (80 nM)) is listed as “fully blocked”. Also, the MIF-elicited chemotaxis in data set [6] (log(msR4M-L1) (M) = -6.495) was 1.49 and 1 and 1.46 and 1.55; in data set [6] (log(msR4M-L1) (M) = -6.796), 1.24 and 1.03 and 1.49 and 1.3; in data set [6] (log(msR4M-L1) (M) = -7.097), 1.2 (3×) and 1.12; in [6] (log(msR4M-L1) (M) = -7.495), 1.18 and 1.24 and 2 and 1.77; in [6] (log(msR4M-L1) (M) = -7.796), 1.67 (2×) and 2.32 and 1.89; in data set [6] (log(msR4M-L1) (M) = -10), 2.52 and 2.18 and 3 and 2.83. In [7], this compound showed a Body weight of 22.3 ± 0.2 g. In addition, in the data set on pAMPK/AMPK in HCM, the “effect on MIF-upregulated pAMPK levels” value was “not attenuated”.
